# According to patent US20260000655A1, “PHARMACEUTICAL COMPOSITION FOR USE IN PREVENTION OR TREATMENT OF LIFESTYLE-RELATED DISEASE” (priority 2022, published 2026):
# Key:
# herpes = conditions: Non-Patent Literature 2; cited from earlier work
# [1] = tested on: high-fat diet-induced obesity model mice; test: Organ weight in mouse; type: in vivo; conditions: HPH-15 100 mg/kg orally once a day 28 days; compared to olive oil
# Description: The changes in organ weights when HPH-15 was administered were examined.
# High-fat diet-induced obesity model mice were prepared in the same manner as in Example 7. Then, HPH-15 (10 mg/kg or 100 mg/kg, […]) dissolved in olive oil or metformin (300 mg/kg, […]) was orally administered once a day for 28 days. Olive oil alone was administered as a control. After 28 days of administration of each, the liver, muscle, subcutaneous fat, and epididymis of the high-fat diet-induced obesity model mice were excised and weighed.
# AMPK = test: Activation of p-AMPK in mouse tissue (Western blotting); type: in vivo
# Description: High-fat diet-induced obesity model mice were prepared in the same manner as in Example 7. Then, HPH-15 (10 mg/kg or 100 mg/kg, […]) dissolved in olive oil or metformin (300 mg/kg, […]) was orally administered once a day for 28 days. Olive oil alone was administered as a control. After 28 days of administration of each, equal amounts (50 mg) of tissue pieces were collected from the liver, subcutaneous fat, and muscle tissues of the high-fat diet-induced obesity model mice, transferred to 1.5 mL Eppendorf tubes, and washed twice with PBS. After washing, the tissue pieces were transferred to BIOMASHER II, […] of RIPA buffer was added, and the tissue pieces were homogenized on ice. After homogenization, the tissue pieces were centrifuged (10,000 rpm, 4° C., 5 min) and the supernatant was obtained as a protein solution. The concentration of the proteins thus obtained was corrected based on the protein concentration measured by the BCA method using bicinchoninic acid (BCA), thereby preparing samples for Western blotting. Western blotting was performed in the same manner as in Example 1 described above, and the amount of p-AMPK/AMPK was calculated.
# [2] = tested on: myotube cell model L6-GLUT4myc, liver cell model HepG2 cells, adipocyte model 3T3-L1; test: Glucose uptake (2-deoxyglucose) into cells; type: cell-based, rat, human, mouse; conditions: HPH-15 10 μM or 50 μM vs metformin 2 mM; 24 hours; 2-deoxyglucose 2 mM, 20 minutes
# Description: The uptake of glucose into cells by HPH-15 was examined using the myotube cell model L6-GLUT4myc, the liver cell model HepG2 cells, and the adipocyte model 3T3-L1.
# The myotube cell model L6-GLUT4myc, the liver cell model HepG2 cells, and the adipocyte model 3T3-L1 used in Example 1 were each seeded onto a 24-well plate (1×10^5 cells/well, […] of culture liquid) and cultured overnight. Then, a DMSO solution (1%) containing HPH-15 (final concentration: 10 μM or 50 μM), metformin (final concentration: 2 mM), or insulin (final concentration: 100 nM) was added to the medium, and the cells were further cultured for 24 hours. As a control, only DMSO solution (1%) was added, and the cells were cultured for 24 hours in the same manner. Next, the cells were washed with KRPH buffer (containing 2% BSA) and cultured in the presence of 2-deoxyglucose (final concentration: 2 mM, FUJIFILM Wako Pure Chemical Corp.) for 20 minutes at 37° C. The uptake of 2-deoxyglucose was stopped by washing the cells with cold PBS, and the amount of glucose taken up into the cells was measured using a Glucose Cellular Uptake Measurement Kit (Cosmo Bio).
# [3] = tested on: high-fat diet-induced obesity model mice; test: Blood glucose lowering effect in mouse; type: in vivo; conditions: HPH-15 10 mg/kg or 100 mg/kg orally once a day for 28 days, compared with metformin 300 mg/kg
# Description: In Example 7, mice were used instead of the cells, which were used up to Example 6, to examine the blood glucose lowering effect of HPH-15.
# Four-week-old […] mice (CLEA Japan, Inc.) were fed a high-fat diet HFD (CLEA Japan, Inc.) for two months to prepare high-fat diet-induced obesity model mice. Then, HPH-15 (10 mg/kg or 100 mg/kg, […]) dissolved in olive oil (Kenei Pharmaceutical Co., Ltd.) or metformin (300 mg/kg, […]) was orally administered once a day for 28 days. Olive oil alone was administered as a control. Body weight, random blood glucose levels, and fasting blood glucose levels were measured every 7 days using a blood glucose meter Glutest Aqua (Sanwa Kagaku Kenkyusho Co., Ltd.). Fasting blood glucose levels were measured after 12-hour fasting. Note that, during the drug administration period, the mice were fed the high-fat diet HFD. The results of random blood glucose levels (mg/dl) are shown in FIG. 7A, and the results of fasting blood glucose levels (mg/dl) are shown in FIG. 7B.
# [4] = tested on: high-fat diet-induced obesity model mice; test: Pyruvic acid loading test in mouse; type: in vivo; conditions: HPH-15 10 mg/kg or 100 mg/kg orally, 28 days; pyruvic acid 2 g/kg intraperitoneally; compared to olive oil
# Description: The effect of HPH-15 on the changes in blood glucose levels in the presence of pyruvic acid involving in gluconeogenesis was examined using mice.
# High-fat diet-induced obesity model mice were prepared in the same manner as in Example 7. Then, HPH-15 (10 mg/kg or 100 mg/kg, […]) dissolved in olive oil or metformin (300 mg/kg, […]) was orally administered once a day for 28 days. Olive oil alone was administered as a control. After 28 days of administration of each, pyruvic acid was intraperitoneally administered (2 g/kg) to the high-fat diet-induced obesity model mice, and blood glucose levels (mg/dl) were measured at 0, 15, 30, 60, 90, and 120 minutes after administration using a blood glucose meter Glutest Aqua (Sanwa Kagaku Kenkyusho Co., Ltd.).
# [5] = HPH-15 10 or 100 mg/kg orally 28 days
smiles,measurement,setting,value
CC(C)(C)SCCNC(=S)c1cccc(C(=S)NCCSC(C)(C)C)n1 [HPH-15],anti-herpes activity,herpes,has anti-herpes activity
same,reduction of subcutaneous fat weight,[1],approximately 50%
same,p-AMPK/AMPK in the liver,AMPK; [5],increased
same,p-AMPK/AMPK in the muscle,AMPK; [5],increased
same,p-AMPK/AMPK in the subcutaneous fat,AMPK; [5],increased
same,AMPK activation in the subcutaneous fat as compared to metformin,"AMPK; HPH-15 10 or 100 mg/kg vs metformin 300 mg/kg, orally 28 days",twice or more as compared to metformin
same,glucose uptake amount,[2],increased the glucose uptake amount to the same extent as or to a greater extent than metformin
same,fasting blood glucose levels,[3]; 12-hour fasting,had the effect of lowering
same,random blood glucose levels,[3],had the effect of lowering
same,blood glucose levels after pyruvic acid loading,[4],significantly lowered
